Laboratory results as given in PMC7351726, “Design, synthesis, structure, in vitro cytotoxic activity evaluation and docking studies on target enzyme GSK-3β of new indirubin-3ʹ-oxime derivatives” (Scientific Reports, 2020).

Legend:
Assay type in all cases: cell-based
HepG2 cells = assay: In vitro cytotoxicity, SRB cell viability assay, HepG2; details: Homo sapiens, 48 h, mean ± SD, triplicate
Method: (§1) For Hepatocarcinoma (HepG2), human lung carcinoma (LU-1), human colorectal adenocarcinoma (SW480) and human normal embryonic kidney (HEK-293) cell lines, the culture medium was Dulbecco’s Modified Eagle’s Medium (DMEM) (Hyclone, USA). The medium supplementation included 10% fetal bovine serum (Hyclone), 100 units/ml penicillin, and 100 μg/ml streptomycin at 37 °C in an atmosphere with 5% CO2 and 95% humidity. For the human leukemia (HL-60) cell line, the maintenance was performed in RPMI-1640 medium (Life Technologies, Inc.) supplemented with 10% heat-inactivated fetal bovine serum (Hyclone) and 100 units/ml penicillin, and 100 μg/ml streptomycin.
(§2) Cell viability assay was conducted using SRB method for HepG2, LU-1, SW480 and HEK-293 cell lines, based on the measurement of protein content. Cells were plated with 180 μl growth medium into 96-microwell plates (4 × 10^4 cells per well) and allowed to grow overnight. Test compounds at various concentrations including 20 μM; 4 μM; 0.8 μM; 0.16 μM with incubation medium were supplemented and cultivated for additional 48 h in the same conditions. Afterwards, the removal of the medium was performed and cold 20% (wt/vol) TCA was used to fix the cell monolayer attached to the wall for 1 h at 4 °C, followed by staining with 1X SRB staining solution at room temperature for 30 min and the removal of the residual dye via repeated washing with 1% (v/v) acetic acid. For OD determination at 515 nm, an ELISA Plate Reader (Bio-Rad) was utilized to analyze the protein-bound dye, which dissolved in 10 mM Tris base solution. […] The cell survival rate (SR) was calculated as SR = [(ODt − OD0)/(ODc − OD0)] × 100, where the subscript 0, t and c represent time-zero, […] and the DMSO control sample.

LU-1 cells = assay: In vitro cytotoxicity, SRB cell viability assay, LU-1; details: Homo sapiens, Lu1; LU-1, SRB, 48 h, mean ± SD, triplicate
Method: as §1, §2

SW480 cells = assay: In vitro cytotoxicity, SRB cell viability assay, SW480; details: Homo sapiens, 48 h, mean ± SD, triplicate
Method: as §1, §2

HL-60 cells = assay: In vitro cytotoxicity, MTT assay, HL-60; details: Homo sapiens; HL-60, MTT, 72 h, mean ± SD, triplicate
Method: as §1
For HL-60 cell line, 5 × 10^3 cells/well were seeded in 96-multiwell plate and cultured overnight. The test compounds were serially diluted to the wells with concentrations ranging at 20 μM; 4 μM; 0.8 μM and 0.16 μM then incubated for 72 h. Thereafter, each well was added with 10 μl of MTT (5 mg/ml in 1X PBS), followed by incubation for 3 h and centrifugation at 1,500 rpm for 10 min. The media were discarded then added 150 μl DMSO to each well. Optical density was measured using a microplate reader at 540 nm.

HEK-293 cells = assay: In vitro cytotoxicity, SRB cell viability assay, normal kidney HEK-293; details: Homo sapiens, HEK293, HEK-293 normal kidney cells, 48 h, mean ± SD, triplicate
Method: as §1, §2

Structure (SMILES) | IC50 (HepG2 cells) [µM] | IC50 (LU-1 cells) [µM] | IC50 (SW480 cells) [µM] | IC50 (HL-60 cells) [µM] | IC50 (HEK-293 cells) [µM]
O=C1Nc2ccccc2/C1=C1/Nc2ccccc2C1=O [Compound 1, indirubin] | > 20 | > 20 | > 20 | > 20 | > 20
O=C1Nc2ccccc2C1=C1Nc2ccccc2C1=NO [Compound 2, indirubin-3′-oxime, reference compound] | 16 ± 0.62 | 16.4 ± 1.05 | 15.7 ± 0.74 | 16.5 ± 0.94 | 14.2 ± 0.71
C#CCN1C(=O)/C(=C2\Nc3ccccc3C2=O)c2ccccc21 [Compound 3] | > 20 | > 20 | > 20 | > 20 | > 20
C#CCN1C(=O)/C(=C2\Nc3ccccc3\C2=N/O)c2ccccc21 [Compound 4] | > 20 | 19.6 ± 1.23 | 18.6 ± 0.91 | 15.3 ± 0.35 | 16.2 ± 0.33
O=C(/C=C/c1ccccc1)c1ccc(OCCn2cc(CN3C(=O)/C(=C4\Nc5ccccc5\C4=N/O)c4ccccc43)nn2)cc1O [Compound 6a] | 3.56 ± 0.75 | 2.26 ± 0.32 | 3.36 ± 0.64 | 2.39 ± 0.46 | 3.21 ± 0.43
COc1cc(/C=C/C(=O)c2ccc(OCCn3cc(CN4C(=O)/C(=C5\Nc6ccccc6\C5=N/O)c5ccccc54)nn3)cc2O)cc(OC)c1OC [Compound 6b] | > 20 | > 20 | > 20 | > 20 | > 20
COc1ccccc1/C=C/C(=O)c1ccc(OCCn2cc(CN3C(=O)/C(=C4\Nc5ccccc5\C4=N/O)c4ccccc43)nn2)cc1O [Compound 6c] | 3.38 ± 0.68 | 2.99 ± 0.55 | 3.8 ± 0.52 | 1.43 ± 0.22 | 1.19 ± 0.12
COc1cccc(/C=C/C(=O)c2ccc(OCCn3cc(CN4C(=O)/C(=C5\Nc6ccccc6\C5=N/O)c5ccccc54)nn3)cc2O)c1 [Compound 6d] | 3.76 ± 0.75 | 2.85 ± 0.74 | 4.46 ± 1.18 | 3.4 ± 0.76 | 2.01 ± 0.64
COc1ccc(/C=C/C(=O)c2ccc(OCCn3cc(CN4C(=O)/C(=C5\Nc6ccccc6\C5=N/O)c5ccccc54)nn3)cc2O)cc1 [Compound 6e] | 4.62 ± 1.07 | 3.28 ± 0.48 | 4.66 ± 0.92 | 3.27 ± 0.37 | 6.98 ± 0.25
CCOc1ccccc1/C=C/C(=O)c1ccc(OCCn2cc(CN3C(=O)/C(=C4\Nc5ccccc5\C4=N/O)c4ccccc43)nn2)cc1O [Compound 6f] | 2.01 ± 0.43 | 1.3 ± 0.14 | 2.54 ± 0.25 | 0.98 ± 0.12 | 1.03 ± 0.11
CCOc1cccc(/C=C/C(=O)c2ccc(OCCn3cc(CN4C(=O)/C(=C5\Nc6ccccc6\C5=N/O)c5ccccc54)nn3)cc2O)c1 [Compound 6g] | 5.68 ± 0.71 | 3.96 ± 0.62 | 4.1 ± 0.57 | 4.82 ± 0.46 | 1.8 ± 0.21
CCOc1ccc(/C=C/C(=O)c2ccc(OCCn3cc(CN4C(=O)/C(=C5\Nc6ccccc6\C5=N/O)c5ccccc54)nn3)cc2O)cc1 [Compound 6h] | 14.2 ± 1.79 | 8.74 ± 0.55 | 14.1 ± 1.18 | 6.5 ± 0.98 | 9.74 ± 0.53
CCCOc1ccccc1/C=C/C(=O)c1ccc(OCCn2cc(CN3C(=O)/C(=C4\Nc5ccccc5\C4=N/O)c4ccccc43)nn2)cc1O [Compound 6i] | 2.28 ± 0.12 | 2.07 ± 0.26 | 3.43 ± 0.84 | 1.28 ± 0.34 | 0.85 ± 0.05
CCCOc1cccc(/C=C/C(=O)c2ccc(OCCn3cc(CN4C(=O)/C(=C5\Nc6ccccc6\C5=N/O)c5ccccc54)nn3)cc2O)c1 [Compound 6k] | 2.95 ± 0.19 | 2.5 ± 0.34 | 2.91 ± 0.13 | 1.29 ± 0.14 | 1.92 ± 0.17
CCCOc1ccc(/C=C/C(=O)c2ccc(OCCn3cc(CN4C(=O)/C(=C5\Nc6ccccc6\C5=N/O)c5ccccc54)nn3)cc2O)cc1 [Compound 6l] | 3.28 ± 0.25 | 2.07 ± 0.31 | 3.03 ± 0.11 | 1.28 ± 0.16 | 7.12 ± 0.18
CN(C)CCn1cc(CN2C(=O)/C(=C3\Nc4ccccc4\C3=N/O)c3ccccc32)nn1 [Compound 6m] | 15.3 ± 0.17 | 8.74 ± 1.06 | 14.4 ± 0.72 | 16 ± 0.38 | 11.9 ± 1.75
O=C1/C(=C2\Nc3ccccc3\C2=N/O)c2ccccc2N1Cc1cn(CCN2CCCCC2)nn1 [Compound 6n] | 11.7 ± 0.23 | 10.1 ± 0.44 | 12.5 ± 0.53 | 10.4 ± 0.84 | 9.52 ± 0.07
O=C1/C(=C2\Nc3ccccc3\C2=N/O)c2ccccc2N1Cc1cn(CCn2ccnc2)nn1 [Compound 6o] | 11.7 ± 0.26 | 8.8 ± 0.38 | 11.2 ± 0.76 | 9.39 ± 0.45 | 5.89 ± 0.75
O=C1/C(=C2\Nc3ccccc3\C2=N/O)c2ccccc2N1Cc1cn(CCN2CCOCC2)nn1 [Compound 6p] | 10.6 ± 0.79 | 8.61 ± 0.57 | 11.7 ± 0.48 | 11.2 ± 1.04 | 7.72 ± 0.42
Cc1c2ccncc2c(C)c2c1[nH]c1ccccc12 [Ellipticine, reference compound] | 1.93 ± 0.54 | 2.5 ± 0.82 | 1.76 ± 0.63 | 2.19 ± 1.12 | 0.32 ± 0.03
